Source: PMC11535068, “Design, in silico studies and biological evaluation of novel chalcones tethered triazolo[3,4-a]isoquinoline as EGFR inhibitors targeting resistance in non-small cell lung cancer” (Scientific Reports, 2024)

Columns and labels:
total EGFR = target: T1, total EGFR (Homo sapiens, UniProt P00533); assay: EGFR inhibition assay on A549 cells (cloud clone SEA757Hu kit); format: cell-based; settings: for IC50: total EGFR, A549 cells
T1 construct: endogenous in cells; host or cells: A549
Protocol: (§1) EGFR inhibition assay was performed on A549 cancer cells using cloud clone product SEA757Hu 96 Ki, according to manufacturer’s instructions protocol. The homogeneous time-resolved fluorescence assay method was used to assess the inhibitory activity of 3e and 3f against EGFR^WT, EGFR^T790M and EGFR^L858R. The EGFR proteins (EGFR^WT, EGFR^T790M and EGFR^L858R) were obtained from Signalchem (BC V6V 2J2, Canada). ATP and other chemicals were obtained from Sigma. […] After 30 min, the reaction was stopped by adding detection reagents containing EDTA.

HCT-116 = assay: MTT antiproliferative assay; settings: Homo sapiens, HCT-116, 24 h, read-out: IC50 HCT-116
Protocol: (§4) Cell line cells were purchased from the American Type Culture Collection (ATCC, Manassas, VA) and were cultured according to the supplier’s instructions. […] The media was changed every 48 h, and the cells were split when 80–90% confluence was reached. Cell viability was evaluated by MTT assay.

HT-29 = assay: MTT antiproliferative assay; settings: Homo sapiens, HT-29, 24 h, read-out: IC50 HT-29
Protocol: as §4

A549 = assay: MTT antiproliferative assay; settings: Homo sapiens, A549, 24 h, read-out: IC50 A549
Protocol: as §4

PC3 = assay: MTT antiproliferative assay; settings: Homo sapiens, PC-3, 24 h, read-out: IC50 PC3
Protocol: as §4

MCF-7 = assay: MTT antiproliferative assay; settings: Homo sapiens, MCF7, 24 h, read-out: IC50 MCF-7
Protocol: as §4

WI-38 = assay: MTT assay on normal lung cell line; settings: Homo sapiens, WI-38, 24 h, read-out: IC50 WI-38
Protocol: as §4

A549 lung cancer cells [1] = assay: Annexin V-FITC/PI flow cytometric apoptosis analysis; format: cell-based, human; settings: A549, 24 h, 3e 2.3 µM, 3f 1.15 µM (IC50)
Protocol: (§2) Quantitation of DNA content was evaluated using the Annexin V-FITC Apoptosis Detection kit (BioVision, CA, USA). Dual staining for Annexin-V and PI allows the discrimination between live cells, necrotic cells, and cells in different phases of apoptosis. […] Then, cells were collected and washed with 1X phosphate-buffered saline. The cells were stained in the dark with annexin V-FITC and propidium iodide in a binding buffer and analyzed using the flow cytometer. The cell cycle profiles were analysed using MultiCycle software (Phoenix Flow Systems, San Diego, CA)[60].

A549 lung cancer cells [2] = assay: Cell cycle analysis (DNA content, flow cytometry); format: cell-based, human; settings: A549, 24 h, at IC50
Protocol: as §2

Bax = assay: RT-qPCR gene expression in A549 cells; format: cell-based, human; settings: A549, 24 h, vs vehicle cells
Protocol: (§3) The real-time polymerase chain reaction (RT-qPCR) technique was used to evaluate the gene expression. A panel of eight genes (P53, BAX, Caspase-3, Caspase-8, Caspase-9, MMP1, CDK4, and Bcl2) was chosen to estimate the compounds’ ability to induce apoptosis. A549 cancer cells were treated with 3e and 3f compounds for 24 h before total RNA extraction. While untreated A549 cancer cells were utilized as a negative control. One-step RT-qPCR was performed using the iScript™ One-Step RT-PCR kit with SYBR®. The primer pairs sequences for each gene used are mentioned in Table 7. Control reactions were formed […] or without the reverse transcriptase enzyme.

Bcl2 = assay: RT-qPCR gene expression in A549 cells; format: cell-based, human; settings: A549, 24 h, vs vehicle cells, beta-actin housekeeping gene
Protocol: as §3

CDK4 = assay: RT-qPCR gene expression in A549 cells; format: cell-based, human; settings: A549, 24 h, vs vehicle cells, beta-actin housekeeping gene
Protocol: as §3

Caspase 3 = assay: RT-qPCR gene expression in A549 cells; format: cell-based, human; settings: A549, 24 h, vs vehicle cells, beta-actin housekeeping gene
Protocol: as §3

Caspase 8 = assay: RT-qPCR gene expression in A549 cells; format: cell-based, human; settings: A549, 24 h, vs vehicle cells, beta-actin housekeeping gene
Protocol: as §3

Caspase 9 = assay: RT-qPCR gene expression in A549 cells; format: cell-based, human; settings: A549, 24 h, vs vehicle cells, beta-actin housekeeping gene
Protocol: as §3

MMP1 = assay: RT-qPCR gene expression in A549 cells; format: cell-based, human; settings: A549, 24 h, vs vehicle cells, beta-actin housekeeping gene
Protocol: as §3

P53 = assay: RT-qPCR gene expression in A549 cells; format: cell-based, human; settings: A549, 24 h, vs vehicle cells
Protocol: as §3

EGFR^L858R = target: T2, EGFR^L858R (Homo sapiens, UniProt P00533, L858R); assay: Homogeneous time-resolved fluorescence EGFR-TK assay; format: biochemical; settings: selectivity index
T2 construct: purchased Signalchem
Protocol: as §1

EGFR^T790M = target: T3, EGFR^T790M (Homo sapiens, UniProt P00533, T790M); assay: as above; format: biochemical; settings: selectivity index
T3 construct: purchased Signalchem
Protocol: as §1

Row | SMILES | IC50 (total EGFR) [µM] | melting point [°C] | IC50 (HCT-116) [µM] | IC50 (HT-29) [µM] | IC50 (A549) [µM] | IC50 (PC3) [µM] | IC50 (MCF-7) [µM] | IC50 (WI-38) [µM] | also measured
1 | COc1cc2c(cc1OC)C1N(CC2)C(C(=O)C=Cc2cn(-c3ccccc3)nc2-c2ccccc2)=NN1c1ccccc1 (centres unmarked) [Compound 3a, 1-(8,9-Dimethoxy-1-phenyl-1,5,6,10b-tetrahydro-[1,2,4]triazolo[3,4-a]isoquinolin-3-yl)-3-(1,3-diphenyl-1H-pyrazol-4-yl)prop-2-en-1-one] | 1.62 ± 0.23 | 180 to 182 | 8.15 ± 0.54 | 16.2 ± 0.57 | 1.98 ± 0.5 | 3.14 ± 1.76 | 8.07 ± 0.1 | 890.44 ± 0.13 | –
2 | COc1cc2c(cc1OC)C1N(CC2)C(C(=O)C=Cc2cn(-c3ccccc3)nc2-c2ccccc2)=NN1c1ccc(C)cc1 (centres unmarked) [Compound 3b, 1-(8,9-Dimethoxy-1-(p-tolyl)-1,5,6,10b-tetrahydro-[1,2,4]triazolo[3,4-a]isoquinolin-3-yl)-3-(1,3-diphenyl-1H-pyrazol-4-yl)prop-2-en-1-one] | 1.89 ± 0.37 | 184 to 186 | 9.41 ± 0.47 | 5.05 ± 0.42 | 2.45 ± 0.68 | 6.61 ± 1.63 | 10 ± 0.23 | 669.88 ± 0.26 | –
3 | COc1ccc(N2N=C(C(=O)C=Cc3cn(-c4ccccc4)nc3-c3ccccc3)N3CCc4cc(OC)c(OC)cc4C32)cc1 (centres unmarked) [Compound 3c, 1-(8,9-Dimethoxy-1-(4-methoxyphenyl)-1,5,6,10b-tetrahydro-[1,2,4]triazolo[3,4-a]isoquinolin-3-yl)-3-(1,3-diphenyl-1H-pyrazol-4-yl)prop-2-en-1-one] | 0.059 ± 0.16 | 186 to 188 | 5.4 ± 0.73 | 4.69 ± 0.55 | 5.26 ± 0.49 | 3.22 ± 1.37 | 4.07 ± 0.38 | 451.08 ± 0.11 | –
4 | COc1cc2c(cc1OC)C1N(CC2)C(C(=O)C=Cc2cn(-c3ccccc3)nc2-c2ccccc2)=NN1c1ccc(Cl)cc1 (centres unmarked) [Compound 3d, 1-(1-(4-Chlorophenyl)-8,9-dimethoxy-1,5,6,10b-tetrahydro-[1,2,4]triazolo[3,4-a]isoquinolin-3-yl)-3-(1,3-diphenyl-1H-pyrazol-4-yl)prop-2-en-1-one] | 0.066 | 216 to 218 | 14.1 ± 0.66 | 15 ± 0.58 | 4.68 ± 0.41 | 5.05 ± 1.43 | 13.5 ± 0.29 | 468.92 ± 0.17 | –
5 | COc1cc2c(cc1OC)C1N(CC2)C(C(=O)C=Cc2cn(-c3ccccc3)nc2-c2ccccc2)=NN1c1ccc(Br)cc1 (centres unmarked) [Compound 3e, 1-(1-(4-Bromophenyl)-8,9-dimethoxy-1,5,6,10b-tetrahydro-[1,2,4]triazolo[3,4-a]isoquinolin-3-yl)-3-(1,3-diphenyl-1H-pyrazol-4-yl)prop-2-en-1-one] | – | 220 to 222 | 14.8 ± 0.31 | 4.2 ± 0.38 | 2.3 ± 0.11 | 2.72 ± 1.36 | 4.21 ± 0.41 | 1731.9 ± 0.21 | Apoptosis Late (%) (A549 lung cancer cells [1]; vehicle 0.21%): 4.5%; Apoptosis Early (%) (A549 lung cancer cells [1]; vehicle 0.49%): 4.26%; Apoptosis Total (%) (A549 lung cancer cells [1]; vehicle 0.70%): 8.76%; Necrosis (%) (A549 lung cancer cells [1]; vehicle 1.58%): 7.26%; DNA content Pre-G1% (A549 lung cancer cells [2]; vehicle 2.28%): 16.02%; DNA content G2/M% (A549 lung cancer cells [2]; vehicle 8.99%): 22.74%; DNA content S% (A549 lung cancer cells [2]; vehicle 44.26%): 35.93%; DNA content G0–G1% (A549 lung cancer cells [2]; vehicle 46.75%): 41.33%; Bax gene expression (in words) (Bax): significantly upregulated; Bcl-2 gene expression fold change (Bcl2): 0.18 fold; CDK4 gene expression fold change (CDK4): 0.44 fold; Caspase 3 gene expression fold change (Caspase 3): 9.29 fold; Caspase 8 gene expression fold change (Caspase 8): 4.23 fold; Caspase 9 gene expression fold change (Caspase 9): 6.55 fold; MMP1 gene expression fold change (MMP1): 0.37 fold; p53 gene expression (in words) (P53): significantly upregulated; Fold more efficient in inhibiting EGFR than lapatinib (total EGFR; total EGFR IC50 ratio to Lapatinib): 1.42 fold; SI^a = EGFR^WT IC50/ EGFR^L858R IC50 (EGFR^L858R): 15.56; SI^b = EGFR^WT IC50/ EGFR^T790M IC50 (EGFR^T790M): 2.63
6 | O=c1[nH]cc(F)c(=O)[nH]1 [Compound 5-FU, 5-fluorouracil, reference compound] | – | – | 171.5 ± 0.23 | 203.6 ± 0.48 | 66.24 ± 0.36 | 178.2 ± 0.34 | 160.3 ± 0.47 | 210.69 ± 0.19 | –
7 | C#Cc1cccc(Nc2ncnc3cc(OCCOC)c(OCCOC)cc23)c1 [Erlotinib, reference compound] | – | – | – | 9.5 ± 0.46 | 7.32 ± 0.52 | 14.4 ± 0.78 | – | 1431.6 ± 0.22 | –
8 | CS(=O)(=O)CCNCc1ccc(-c2ccc3ncnc(Nc4ccc(OCc5cccc(F)c5)c(Cl)c4)c3c2)o1 [Lapatinib, reference compound] | – | – | 5.92 ± 0.45 | 8.23 ± 0.33 | 9.66 ± 0.44 | 13.7 ± 0.89 | 5.02 ± 1.1 | 1239.4 ± 0.18 | –
